Kd data for four compounds are collected here from publication PMC5976863, “The Active Components of Fuzheng Huayu Formula and Their Potential Mechanism of Action in Inhibiting the Hepatic Stellate Cells Viability – A Network Pharmacology and Transcriptomics Approach” (Frontiers in Pharmacology, 2018).

pKd: −log10 of the molar value. Read-outs that look alike come from different tables or passages of the source.

The experiment addresses T1, peroxisome proliferator activator receptor gamma (PPARG) (Homo sapiens, UniProt P37231).
T1 sequence (P37231 1-505): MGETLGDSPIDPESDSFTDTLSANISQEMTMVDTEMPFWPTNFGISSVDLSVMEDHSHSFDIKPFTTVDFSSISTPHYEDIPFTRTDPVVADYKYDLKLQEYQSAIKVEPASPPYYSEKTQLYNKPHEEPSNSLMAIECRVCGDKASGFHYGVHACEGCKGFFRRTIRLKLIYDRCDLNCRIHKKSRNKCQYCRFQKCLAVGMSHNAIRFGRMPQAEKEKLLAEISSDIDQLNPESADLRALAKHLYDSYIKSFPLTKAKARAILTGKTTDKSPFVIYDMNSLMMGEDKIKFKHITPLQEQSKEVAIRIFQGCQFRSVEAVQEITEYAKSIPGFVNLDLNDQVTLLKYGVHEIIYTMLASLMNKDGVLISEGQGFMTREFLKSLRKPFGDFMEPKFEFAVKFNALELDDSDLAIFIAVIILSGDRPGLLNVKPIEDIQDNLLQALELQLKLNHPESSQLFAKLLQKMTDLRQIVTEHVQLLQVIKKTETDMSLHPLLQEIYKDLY
The experiment in a line: SPR (Biacore T200), PPARG immobilized on CM5 chip. It is filed as binding.

Usually pKd stands for the negative decadic logarithm of the Kd, by convention in mol/L. In turn, `CCCCC/C=C/C=C1/C(=O)C=C[C@@H]1C/C=C\CCCC(=O)O` [15d-PGJ2, reference compound] gave a pKd of 5.01.

For the compound `O=c1c(O)c(-c2ccc(O)cc2)oc2cc(O)cc(O)c12` [Kaempferol], the negative logarithm of the Kd (pKd) (read-out: Kd) was 4.29.

Take `O=C(/C=C/c1ccc(O)c(O)c1/C=C/c1ccc(O)c(O)c1)O[C@H](Cc1ccc(O)c(O)c1)C(=O)O` [Salvianolic acid A]: the pKd (read-out: Kd) is 5.46.

In the case of `COc1cc2c(c(OC)c1OC)-c1c(cc3c(c1OC)OCO3)CC(C)C(C)C2` (stereo not shown) [schisandrin B], for the setting “read-out: Kd”, the pKd is 4.66.
